# Literature values as cited in patent US20240115517A1, “COMPOSITIONS AND METHODS FOR IMPROVING SKIN BARRIER” (LYCORED LTD., priority 0001, published 2024).
# Key:
# [1] = 4 mg/day, 9 weeks
structure (smiles),measurement,setting,value
"CC1=C(/C=C/C(C)=C/C=C/C(C)=C/C=C/C=C(C)/C=C/C=C(C)/C=C/C2=C(C)C(=O)[C@@H](O)CC2(C)C)C(C)(C)C[C@H](O)C1=O [astaxanthin, Astaxanthin]",TEWL compared to controls,"36 male subjects; 6 mg per day, 6 weeks",significantly reduced
same,"minor wrinkles, age spot size, elasticity, hydration",36 male subjects; astaxanthin supplementation,improvements
same,minimal erythema dose of UV,[1],increase
same,increase of TEWL at the site of irradiation versus control group,[1]; after UV irradiation,significantly less
